Entries after “also recorded” stand apart in the source; their conditions may differ. Like-named read-outs stand apart in the source and are kept apart here.
Key:
[1] = Stability in ^131I-labeling, Tl(TFA)3/TFA iodination (Example 6-A); type: physicochemical; details: for chemical stability during the radioiodination: Tl(TFA)3/TFA iodination; for Identified impurity (%) / RCP (%): after ^131I-labeling with 2.5 mCi Na^131I
Excerpt: Purpose: ^131I-labeling yield and stability were compared side-by-side for (Compound C, Compound D and Compound A) together with Compound B (with or without addition of Dioxolane).
Results: The T1(TFA)3/TFA iodination method could be used for ^131I-Compound C, ^131I-Compound D and Compound A. Different from Compound B, there was almost no degraded impurities occurred during the labeling (^131I-Compound C, ^131I-Compound D or Compound A) at a radioactivity dose level of 2.5 mCi.

SK-MEL-3 tumor = assay: Effect on SK-MEL-3 tumor growth in mice; type: in vivo; details: 68 mCi/m^2
Excerpt: FIG. 6 illustrates the effect of ^131I-Cmpd A (68 mCi/m^2) on SK-MEL-3 tumor growth at various dose levels.
FIG. 7 illustrates the effect of ^131I-Cmpd A (68 mCi/m^2) on SK-MEL-3 tumor growth in mice at various dose levels. […] (Please note that animals were euthanized if tumor volume was>1500 mm^3).
Effects of ^131I-Cmpd A (68 mCi/m^2) on SK-MEL-3 tumor growth were investigated in mice. Saline and dacarbazine were used as references for the study. In this experiment, different batches of mice were administered a dose of 68 mCi/m^2 of ^131I-Cmpd A once a day, twice a day, and thrice a day. The treatment lasted for 125 days. The mice were euthanized if tumor volume was greater than 1500 mm^3. The treated mice were closely monitored and sacrificed if any signs of approaching death were shown. Tumor change (length and width of tumor) was monitored every few days.

B16F10 tumor = assay: Organ distribution and tumor accumulation in B16F10 tumor bearing mice; type: in vivo; details: for biodistribution (distribution properties): B16F10 tumor bearing mice, 1 hour and 24 hour after intravenous administration, FIG. 4
Procedure: FIG. 3 illustrates the biodistribution of ^131I-Cmpd B and ^131I-Cmpd BD in B16F10 bearing mice.
FIG. 4 illustrates the biodistribution of ^131I-Cmpd A, ^131I-Cmpd B, ^131I-Cmpd C, and ^131I-Cmpd D in B16F10 tumor bearing mice.
The organ distribution and tumor accumulation experiments were performed in B16F10 tumor bearing mice. At times indicated (1 hour and 24 hour) after intravenous administration of the substances, the animals were sacrificed, organs and tumors were removed, optionally dabbed dry, weighed, and measured for radioactive content in a calibrator with the corresponding isotope standard. The results are depicted as % of the injected dose/gm of tissue. FIG. 4 illustrates the biodistribution of ^131I-Cmpd A, ^131I-Cmpd B, ^131I-Cmpd C, and ^131I-Cmpd D in B16F10 tumor bearing mice.

[2] = Stability post labelling in radiolysis protecting buffer, 3 days storage at RT (Example 6-B); type: physicochemical; details: for Free ^131I (%) / Identified impurity (%) / RCP (%): RT, radiolysis protecting buffer, ~11 mCi/mL
melanin = melanin targeting / binding capacity in vitro and in vivo
[3] = Tumor uptake and retention of ^123I-Compound B in B16 melanoma bearing mice; type: in vivo; details: mouse
Excerpt: Tumor uptake and retention of ^123I-Compound B in B16 melanoma bearing mice (% ID/g) was as shown in Table B. Those studies were done using the method disclosed in Eisenhut et al., J. Med. Chem. 2000, 43(21), 3913-22.

[4] = Solubility over one week storage at RT, visual inspection and HPLC (Example 7-C); type: physicochemical; details: for HPLC measured conc. at 7 days: 3 mg/mL prepared, with 3% acetic acid; for aqueous solubility: comparison among the tested compounds
Procedure: Compound C and Compound D were dissolved in acetic acid first, and then with PEG400/ethanol; the solution was finally diluted in matrix into a final concentration of 3 mg/mL. The matrix included 3% sodium gentisate (w/v) and 6% ascorbic acid (w/v) (pH=3.6). The prepared sample solution was kept at RT and examined by visual inspection. The concentration of the tested compounds in the solution or in the supernatant was analyzed by HPLC.

[5] = Solubility at 3 mg/mL, dissolved in acetic acid, then PEG400/ethanol, then matrix, visual inspection (Example 7-B); type: physicochemical; details: 3% acetic acid, 30% PEG400, 2% ethanol, 6% ascorbic acid, 3% sodium gentisate, pH=3.6, RT
Procedure: The compounds were dissolved in acetic acid first, and then diluted with PEG400/ethanol; the solution was finally diluted in matrix into a final concentration of 3 mg/mL. The components of the matrix included 3% sodium gentisate (w/v) and 6% ascorbic acid (w/v) (pH=3.6). The prepared sample solution was kept at RT and examined by visual inspection.

B16 melanoma = B16 melanoma bearing C57BL/J1 mouse, cited from earlier work
[6] = protected with 10 μL of Dioxolane

Structure (SMILES): CCN(CC)CCNC(=O)c1cc([131I])c(NC(=O)c2ccc(F)cc2)cc1OC [Compound A, N-(2-(diethylamino)ethyl)-4-(4-fluoro-benzoylamino)-5-iodo-2-methoxybenzamide]
- chemical stability during the radioiodination [1]: stable
- tumor growth (tumor change) (SK-MEL-3 tumor; SK-MEL-3 tumor in mice, FIG. 6): reducing the tumor growth
- survival of the mice (SK-MEL-3 tumor; SK-MEL-3 tumor in mice, FIG. 7): increasing survival of the mice
- response to treatment (SK-MEL-3 tumor; human melanoma mouse xenograft model): complete response (CR) has been observed
- biodistribution (distribution properties) (B16F10 tumor): desirable distribution properties
- tumor uptake and retention (B16F10 tumor; tumor bearing animal models): significant high tumor uptake and prolonged retention

Structure (SMILES): CCN(CC)CCNC(=O)c1cc(I)c(NC(=O)c2ccc3c(c2)OCO3)cc1OC [Compound B, benzo[1,3]dioxole-5-carboxylic acid [4-(2-diethylamino-ethylcarbamoyl)-2-iodo-5-methoxyphenyl]amide]
- Free ^131I (%) ([2]; 0 day): 0.1%
- Identified impurity (%) ([2]; 0 day): 10.3%
- RCP (%) ([2]; 0 day): 89.5%
- Free ^131I (%) ([2]; 3 day): 2.4%
- Identified impurity (%) ([2]; 3 day): 8.8%
- RCP (%) ([2]; 3 day): 88.6%
- stability during the 3 days storage at RT post labeling ([2]; diluted in radiolysis protecting solution, Compound B vs Compound A): no significant difference in stability
- melanin targeting capacity (melanin): found to have melanin targeting capacity both in vitro and in vivo
- chemical stability during the radioiodination [1]: poor chemical stability
- Identified impurity (%) ([1]; Tl(TFA)3/TFA): 5.5%
- RCP (%) ([1]; Tl(TFA)3/TFA): 90.3%
- Identified impurity (%) [1, 6]: 2.3%
- RCP (%) [1, 6]: 94.0%
- biodistribution (distribution properties) (B16F10 tumor): desirable distribution properties
- tissue uptake at 1 h ([3]; 1 h): 14.8 %ID/g
- tissue uptake at 5 h ([3]; 5 h): 22.7 %ID/g
- tissue uptake at 48 h ([3]; 48 h): 16.6 %ID/g

Structure (SMILES): CCN(CC)CCNC(=O)c1cc(I)c(NC(=O)c2ccc(Cl)cc2)cc1OC [Compound C, 4-(4-chlorobenzoylamino)-N-(2-(diethylamino)ethyl)-5-iodo-2-methoxybenzamide]
- melanin targeting capacity (melanin): found to have melanin targeting capacity both in vitro and in vivo
- chemical stability during the radioiodination [1]: stable
- Identified impurity (%) ([1]; Tl(TFA)3/TFA): 0%
- RCP (%) ([1]; Tl(TFA)3/TFA): 97.1%
- biodistribution (distribution properties) (B16F10 tumor): desirable distribution properties
- HPLC measured conc. at 7 days ([4]; RT, concentration in the supernatant): 0.23 mg/mL
- Solution inspection at 7 days ([4]; 3 mg/mL, 3% acetic acid, 30% PEG400, 2% ethanol, 6% ascorbic acid, 3% sodium gentisate, RT): Precipitation**
- aqueous solubility [4]: poor aqueous solubility; also recorded: Compound A>Compound D>>Compound C
- Solution inspection [5]: Clear solution

Structure (SMILES): CCN(CC)CCNC(=O)c1cc(I)c(NC(=O)c2ccc(OC)cc2)cc1OC [Compound D, N-(2-diethylamino-ethyl)-5-iodo-2-methoxy-4-(4-methyoxybenzoylamino)benzamide]
- melanin targeting capacity (melanin): found to have melanin targeting capacity both in vitro and in vivo
- chemical stability during the radioiodination [1]: stable
- Identified impurity (%) ([1]; Tl(TFA)3/TFA): 0%
- RCP (%) ([1]; Tl(TFA)3/TFA): ~100%
- biodistribution (distribution properties) (B16F10 tumor): desirable distribution properties
- HPLC measured conc. at 7 days ([4]; RT): 2.89 mg/mL
- aqueous solubility [4]: poor aqueous solubility; also recorded: Compound A>Compound D>>Compound C
- Solution inspection [5]: Clear solution

Structure (SMILES): CCN(CC)CCNC(=O)c1ccc([123I])cc1 [^123I-BZA]
- tumor wash-out (% ID/g) (B16 melanoma; 1 h): 6.8 % ID/g
- tumor wash-out (% ID/g) (B16 melanoma; 24 h): 0.8 % ID/g
- tumor wash-out (% ID/g) (B16 melanoma; 72 h): 0.3 % ID/g

Reference: patent US20110206608A1, “Pharmaceutical Composition Of A Radioiodinated Benzamide Derivative And Methods Of Making Same” (priority 2008, published 2011)
